Reference: the NIST ThermoML archive (doi:10.1016/j.fluid.2010.05.019)

Key:
[1] = wn = mass fraction of the nth substance listed; conditions: 298.15 K, 101 kPa, Liquid, Alternating current cell with electrodes
[2] = 298.15 K, Liquid; for electrical conductivity: 101 kPa, Alternating current cell with electrodes; for mass density / viscosity: 101.33 kPa; for mass density: Pycnometric method; for viscosity: Cone and plate viscometry

C1CC[NH2+]C1.CC(=O)[O-] [pyrrolidinium acetate] + O
[1]
Conditions	electrical conductivity [S/m]
w2 = 0	0.594
w2 = 0.0474	0.685
w2 = 0.0906	0.716
w2 = 0.1661	1.04
w2 = 0.1994	1.11
w2 = 0.2585	1.53
w2 = 0.3095	1.93
w2 = 0.3539	2.32
w2 = 0.393	2.64
w2 = 0.4585	3.24
w2 = 0.499	3.52
w2 = 0.5546	3.92
w2 = 0.599	4.09
w2 = 0.6543	4.3
w2 = 0.7007	4.37
w2 = 0.7554	4.43
w2 = 0.8033	4.23
w2 = 0.8328	4.02

CCCC(C)[NH3+].O=C[O-] (stereo not given) [2-pentanaminium formate] + O
[1]
Conditions	electrical conductivity [S/m]
w2 = 0	0.036
w2 = 0.056	0.121
w2 = 0.1005	0.197
w2 = 0.1623	0.342
w2 = 0.2793	0.847
w2 = 0.3676	1.38
w2 = 0.4366	1.92
w2 = 0.5375	2.8
w2 = 0.6078	3.3
w2 = 0.6595	3.51
w2 = 0.6992	3.6
w2 = 0.7561	3.57
w2 = 0.7999	3.4
w2 = 0.88	2.93
w2 = 0.9	2.73
w2 = 0.91	2.38
w2 = 0.925	2.13
w2 = 0.933	1.94
w2 = 0.943	1.71
w2 = 0.954	1.47
w2 = 0.967	1.13
w2 = 0.982	0.677

C1CC[NH2+]C1.O=[N+]([O-])[O-] [pyrrolidinium nitrate] + O
[1]
Conditions	electrical conductivity [S/m]
w2 = 0	5.01
w2 = 0.0476	6.79
w2 = 0.0908	7.74
w2 = 0.1665	9.11
w2 = 0.1999	9.7
w2 = 0.2591	10.4
w2 = 0.3101	10.9
w2 = 0.3546	11.1
w2 = 0.3937	11.3
w2 = 0.4592	11.2
w2 = 0.4998	10.8
w2 = 0.5553	10.9
w2 = 0.5998	10.4
w2 = 0.655	9.97
w2 = 0.7013	9.42
w2 = 0.7999	7.86
w2 = 0.8504	6.1
w2 = 0.9074	4.5
w2 = 0.96	2.5
w2 = 0.9987	0.122

O [water] + CC[NH+](C(C)C)C(C)C.O=C[O-]
Conditions	electrical conductivity [S/m]
[1], w1 = 1	0.0001

CCCC(C)[NH3+].O=C[O-] (stereo not given) [2-pentanaminium formate]
[2]
Conditions	electrical conductivity [S/m]	mass density [kg/m3]
–	0.036	1163

C1CC[NH2+]C1.O=C[O-] [pyrrolidinium formate] + O
[1]
Conditions	electrical conductivity [S/m]
w2 = 0	3.29
w2 = 0.0251	4.01
w2 = 0.0501	4.44
w2 = 0.0907	4.95
w2 = 0.1666	5.99
w2 = 0.2304	6.71
w2 = 0.2853	7.2
w2 = 0.3329	7.54
w2 = 0.3745	7.73
w2 = 0.4113	7.83
w2 = 0.4439	7.83
w2 = 0.4995	7.77
w2 = 0.5647	7.33
w2 = 0.5828	7.04
w2 = 0.6662	6.36
w2 = 0.7055	5.92
w2 = 0.7496	5.36
w2 = 0.7917	4.48
w2 = 0.8607	3.18
w2 = 0.9018	2.13
w2 = 0.9106	1.88

C1CC[NH2+]C1.CCCCCC(=O)[O-] [pyrrolidinium hexanoate] + O
[1]
Conditions	electrical conductivity [S/m]
w2 = 0	0.204
w2 = 0.0476	0.568
w2 = 0.0909	0.95
w2 = 0.1489	1.54
w2 = 0.1667	1.73
w2 = 0.1837	1.91
w2 = 0.2	2.01
w2 = 0.2308	2.21
w2 = 0.2593	2.4
w2 = 0.2727	2.48
w2 = 0.2982	2.61
w2 = 0.3103	2.65
w2 = 0.3333	2.76
w2 = 0.3548	2.86
w2 = 0.3846	2.91
w2 = 0.403	2.91
w2 = 0.4521	2.92
w2 = 0.5	2.89
w2 = 0.5294	2.85
w2 = 0.5506	2.81
w2 = 0.601	2.53
w2 = 0.7015	1.96
w2 = 0.8004	1.21
w2 = 0.9002	0.551

O [water] + C1CC[NH2+]C1.CCCCCCCCC(=O)[O-]
Conditions	electrical conductivity [S/m]
[1], w1 = 1	0.0001

C1CC[NH2+]C1.CCCCCCCCC(=O)[O-] [pyrrolidinium nonanoate]
[2]
Conditions	electrical conductivity [S/m]	mass density [kg/m3]	viscosity [mPa·s]
–	0.064	931.5	74.4

C1CC[NH2+]C1.O=C[O-] [pyrrolidinium formate]
[2]
Conditions	electrical conductivity [S/m]	viscosity [mPa·s]
–	3.29	2.5

C1CC[NH2+]C1.CCCCCCC(=O)[O-] [pyrrolidinium heptanoate] + O
[1]
Conditions	electrical conductivity [S/m]
w2 = 0	0.186
w2 = 0.0476	0.528
w2 = 0.0909	0.74
w2 = 0.1489	1.13
w2 = 0.2	1.41
w2 = 0.2593	1.8
w2 = 0.2857	1.97
w2 = 0.3103	2.12
w2 = 0.3333	2.22
w2 = 0.3548	2.31
w2 = 0.375	2.38
w2 = 0.3939	2.42
w2 = 0.403	2.44
w2 = 0.4203	2.47
w2 = 0.4444	2.53
w2 = 0.4595	2.56
w2 = 0.4872	2.59
w2 = 0.5	2.6
w2 = 0.5238	2.61
w2 = 0.5556	2.62
w2 = 0.608	2.47
w2 = 0.7011	2.12
w2 = 0.805	1.52
w2 = 0.905	0.728

O [water] + C1CC[NH2+]C1.CCCCCCCC(=O)[O-]
Conditions	electrical conductivity [S/m]
[1], w1 = 1	0.0001

O [water] + C1CC[NH2+]C1.CCCCCC(=O)[O-]
Conditions	electrical conductivity [S/m]
[1], w1 = 1	0.0001

C1CC[NH2+]C1.CC(=O)[O-] [pyrrolidinium acetate]
[2]
Conditions	electrical conductivity [S/m]	mass density [kg/m3]	viscosity [mPa·s]
–	0.594	1054.3	30.2

O [water] + Cc1cccc[n+]1C.O=C[O-]
Conditions	electrical conductivity [S/m]
[1], w1 = 1	0.0001

O [water]
Conditions	electrical conductivity [S/m]
[2]	0.0001

O [water] + Cc1ccc[n+](C)c1C.O=C[O-]
Conditions	electrical conductivity [S/m]
[1], w1 = 1	0.0001

C1CC[NH2+]C1.O=[N+]([O-])[O-] [pyrrolidinium nitrate]
[2]
Conditions	electrical conductivity [S/m]	viscosity [mPa·s]
–	5.01	5.2

O [water] + C1CC[NH2+]C1.O=C[O-]
Conditions	electrical conductivity [S/m]
[1], w1 = 1	0.0001

O [water] + O=C[O-].c1ccc2[nH+]cccc2c1
Conditions	electrical conductivity [S/m]
[1], w1 = 1	0.0001
